# Reference: patent US9738932B2, “Biomarkers for cardiovascular side-effects induced by cox-2 inhibitory compounds” (FIRALIS SAS, priority 2005, dated 2017)
# Tested on: mRNA expression in cardiovascular tissues
# Assay: Affymetrix GeneChip mRNA expression profiling of monkey tissues (iliac vein, pulmonary vein, aorta, carotid artery, heart) after two-week oral-gavage treatment
# Conditions: iliac vein
# [1] = group average (Vioxx without A60055)
# [2] = group avg, Vioxx without A60055
smiles,measurement,setting,value
"CS(=O)(=O)c1ccc(C2=C(c3ccccc3)C(=O)OC2)cc1 [Vioxx®, rofecoxib]","BCL6 (215990_s_at) mRNA expression, Avg fold changes vs control",[1],1.0 fold
same,"BTN2A2 (205298_s_at) mRNA expression, Avg fold changes vs control",[1],1.1 fold
same,"CCR1 (205098_at) mRNA expression, Avg fold changes vs control",[1],1.1 fold
same,"CD2 (205831_at) mRNA expression, Avg fold changes vs control",[1],1.1 fold
same,"CD48 (204118_at) mRNA expression, Avg fold changes vs control",[1],1.1 fold
same,"CD53 (203416_at) mRNA expression, Avg fold changes vs control",[1],1.2 fold
same,"CDC2 (210559_s_at) mRNA expression, Avg fold changes vs control",[1],1.0 fold
same,"CYBB (203922_s_at) mRNA expression, Avg fold changes vs control",[1],1.2 fold
same,"EMP3 (203729_at) mRNA expression, Avg fold changes vs control",[1],0.7 fold
same,"FCER1G (204232_at) mRNA expression, Avg fold changes vs control",[1],0.9 fold
same,"FCGR2A (203561_at) mRNA expression, Avg fold changes vs control",[1],1.1 fold
same,"FCGRT (218831_s_at) mRNA expression, Avg fold changes vs control",[1],1.0 fold
same,"FKBP11 (219117_s_at) mRNA expression, Avg fold changes vs control",[1],0.7 fold
same,"FKBP11 (219118_at) mRNA expression, Avg fold changes vs control",[1],0.6 fold
same,"GP6 (220336_s_at) mRNA expression, Avg fold changes vs control",[1],1.2 fold
same,"HCLS1 (202957_at) mRNA expression, Avg fold changes vs control",[1],1.2 fold
same,"HEM1 (209734_at) mRNA expression, Avg fold changes vs control",[1],1.2 fold
same,"HLA-A (210514_x_at) mRNA expression, Avg fold changes vs control",[1],1.2 fold
same,"HLA-A (213932_x_at) mRNA expression, Avg fold changes vs control",[1],1.2 fold
same,"HLA-C (211799_x_at) mRNA expression, Avg fold changes vs control",[1],1.0 fold
same,"HLA-E (200904_at) mRNA expression, Avg fold changes vs control",[1],1.1 fold
same,"HLA-F (221978_at) mRNA expression, Avg fold changes vs control",[1],1.3 fold
same,"ICAM1 (202637_s_at) mRNA expression, Avg fold changes vs control",[1],0.8 fold
same,"IL13RA1 (210904_s_at) mRNA expression, Avg fold changes vs control",[1],1.1 fold
same,"PIK3CD (203879_at) mRNA expression, Avg fold changes vs control",[1],1.1 fold
same,"PRKCBP1 (209048_s_at) mRNA expression, Avg fold changes vs control",[1],1.3 fold
same,"PRKCBP1 (209049_s_at) mRNA expression, Avg fold changes vs control",[1],1.0 fold
same,"PTPN7 (204852_s_at) mRNA expression, Avg fold changes vs control",[1],1.4 fold
same,"SIGIRR (52940_at) mRNA expression, Avg fold changes vs control",[1],1.1 fold
same,"STAT1 (200887_s_at) mRNA expression, Avg fold changes vs control",[1],1.2 fold
same,"STAT1 (AFFX-HUMISGF3A/M97935_3_at) mRNA expression, Avg fold changes vs control",[1],1.1 fold
same,"STAT3 (208992_s_at) mRNA expression, Avg fold changes vs control",[1],1.0 fold
same,"TCIRG1 (204158_s_at) mRNA expression, Avg fold changes vs control",[1],1.0 fold
same,"THY1 (213869_x_at) mRNA expression, Avg fold changes vs control",[1],0.8 fold
same,"TMPO (209753_s_at) mRNA expression, Avg fold changes vs control",[1],0.8 fold
same,"TMSB10 (217733_s_at) mRNA expression, Avg fold changes vs control",[1],1.1 fold
same,"TNFRSF21 (218856_at) mRNA expression, Avg fold changes vs control",[1],1.2 fold
same,"TRB@ (210915_x_at) mRNA expression, Avg fold changes vs control",[1],1.3 fold
same,"TRB@ (213193_x_at) mRNA expression, Avg fold changes vs control",[1],1.2 fold
same,209813_x_at avg fold change vs control,[2],0.4 fold
same,AIF1 (209901_x_at) avg fold change vs control,[2],0.3 fold
same,AIF1 (213095_x_at) avg fold change vs control,[2],0.6 fold
same,B2M (201891_s_at) avg fold change vs control,[2],1.4 fold
same,BCL3 (204908_s_at) avg fold change vs control,[2],0.7 fold
same,BTN3A1 (207485_x_at) avg fold change vs control,[2],2.0 fold
same,BTN3A3 (38241_at) avg fold change vs control,[2],14 fold
same,BTN3A3 (204820_s_at) avg fold change vs control,[2],1.6 fold
same,BTN3A3 (204821_at) avg fold change vs control,[2],1.7 fold
same,C1QA (218232_at) avg fold change vs control,[2],0.9 fold
same,C1QB (202953_at) avg fold change vs control,[2],1.0 fold
same,C1R (212067_s_at) avg fold change vs control,[2],0.9 fold
same,C1S (208747_s_at) avg fold change vs control,[2],1.3 fold
same,C2 (203052_at) avg fold change vs control,[2],0.9 fold
same,C4A (208451_s_at) avg fold change vs control,[2],1.1 fold
same,CASP1 (209970_x_at) avg fold change vs control,[2],1.1 fold
same,CASP1 (211367_s_at) avg fold change vs control,[2],1.4 fold
same,CCL2 (216598_s_at) avg fold change vs control,[2],1.0 fold
same,CCL3 (205114_s_at) avg fold change vs control,[2],1.4 fold
same,CCL5 (1405_i_at) avg fold change vs control,[2],0.5 fold
same,CCL8 (214038_at) avg fold change vs control,[2],1.8 fold
same,CCL18 (209924_at) avg fold change vs control,[2],0.7 fold
same,CCL19 (210072_at) avg fold change vs control,[2],1.2 fold
same,CCNB2 (202705_at) avg fold change vs control,[2],1.4 fold
same,CD3D (213539_at) avg fold change vs control,[2],2.0 fold
same,CD8A (205758_at) avg fold change vs control,[2],1.3 fold
same,CD14 (201743_at) avg fold change vs control,[2],0.8 fold
same,CD74 (209619_at) avg fold change vs control,[2],1.1 fold
same,CLU (208791_at) avg fold change vs control,[2],0.9 fold
same,CMAH (210571_s_at) avg fold change vs control,[2],1.0 fold
same,CTSC (201487_at) avg fold change vs control,[2],1.1 fold
same,CTSK (202450_s_at) avg fold change vs control,[2],1.3 fold
same,CTSS (202902_s_at) avg fold change vs control,[2],1.0 fold
same,CX3CR1 (205898_at) avg fold change vs control,[2],1.0 fold
same,CXCL9 (203915_at) avg fold change vs control,[2],1.6 fold
same,CXCL10 (204533_at) avg fold change vs control,[2],1.1 fold
same,CXCL11 (210163_at) avg fold change vs control,[2],1.5 fold
same,CXCL11 (211122_s_at) avg fold change vs control,[2],1.0 fold
same,CXCL12 (209687_at) avg fold change vs control,[2],1.0 fold
same,CYBA (203028_s_at) avg fold change vs control,[2],1.1 fold
same,CYBB (203923_s_at) avg fold change vs control,[2],0.9 fold
same,CYP1B1 (202436_s_at) avg fold change vs control,[2],1.0 fold
same,CYP3A5 (214234_s_at) avg fold change vs control,[2],0.9 fold
same,CYP11B1 (214630_at) avg fold change vs control,[2],0.8 fold
same,DUSP6 (208893_s_at) avg fold change vs control,[2],1.0 fold
same,ECGF1 (204858_s_at) avg fold change vs control,[2],1.9 fold
same,ECM1 (209365_s_at) avg fold change vs control,[2],1.3 fold
same,F2RL1 (206429_at) avg fold change vs control,[2],2.0 fold
same,F13A1 (203305_at) avg fold change vs control,[2],0.9 fold
same,FCGR1A (214511_x_at) avg fold change vs control,[2],0.6 fold
same,FCGR3A (204006_s_at) avg fold change vs control,[2],0.8 fold
same,G1P2 (205483_s_at) avg fold change vs control,[2],3.3 fold
same,GZMB (210164_at) avg fold change vs control,[2],1.6 fold
same,HCA127 (220040_x_at) avg fold change vs control,[2],0.6 fold
same,HCK (208018_s_at) avg fold change vs control,[2],1.2 fold
same,HFE (210864_x_at) avg fold change vs control,[2],1.2 fold
same,HFE (211329_x_at) avg fold change vs control,[2],0.9 fold
same,HFE (211332_x_at) avg fold change vs control,[2],1.0 fold
same,HFE (211863_x_at) avg fold change vs control,[2],0.8 fold
